Measured values: patent US9518300B2, “Composition and method for treating a hematological malignancy” (Dana-Farber Cancer Institute, Inc., priority 2014, dated 2016)

Tests used:
BCL9 [1] = test: Transfection of patient CD138+ primary cells, IF of BCL9, CD44, Axin2; format: cell-based, human; details: CD138+ primary cells (n=3), 40 pmol, control cel-miR-67
Text: (§1) In order to verify miR-30's potential for therapy in MM patients, CD138+ primary cells (n=3) were transfected with 40 pmol of mature miR-30c or same amount of cel-miR-67 as control.

BCL9 [2] = test: Transient transfection of mature miR-30c, BCL9 immunoblot in RPMI8226 cells; format: cell-based, human; details: increasing amounts of mature miR-30c, 72 hours, control cel-miR-67
Experimental: To exclude the possibility that the observed changes in BCL9 expression may be due to non specific and/or secondary effects of stable transfection of V-miR-30c, we also performed transient transfection with increasing amounts of mature miR-30c into RPMI8226 cells, using cel-miR-67 as a control (FIG. 3F).
To confirm transfection efficiency, cells were collected 72 hours after transfection, and miR-30c expression levels were checked by Q-RT-PCR (FIG. 3F, top). We found an inverse association between downregulation of BCL9 protein expression and increasing amounts of transfected mature miR-30c (FIG. 3F, bottom).

BCL9 [3] = test: BCL9 and Wnt target gene expression after ectopic miR-30 expression (Q-RT-PCR, immunoblot, IF); format: cell-based, human; details: H929 cells
Text: We next investigated whether BCL9 mRNA expression is regulated by miR-30s in MM cells using both gain- and loss-of function studies. For gain-of-function studies we used H929 cells that express the lowest levels of miR-30s among the MM cell lines examined (FIG. 1C).
We first induced ectopic expression of individual V-miR-30s family members in H929 cells using lentiviral infection. After flow sorting of GFP positive cells, levels of miR-30s were verified by Q-RT-PCR (FIG. 3A) and then used in subsequent experiments.

[4] = μCT of bone in mice not transplanted with myeloma cells; format: in vivo; details: SCID mice not transplanted, 10 days of treatment, versus vehicle
Experimental: Micro-computed topographic (μCT) imaging was performed on the L4-L6 vertebrae of the intact spine of a subset of mice using a high-resolution desktop imaging system (μCT40, Scanco Medical AG, Bruttisellen, Switzerland). Scans were acquired using a 12 μm^3 isotropic voxel size, 70 kVp peak x-ray tube potential, and 200 ms integration time. Cortical and trabecular bone micro architecture was quantified in the 5th lumbar vertebral body in a region beginning 120 μm below the cranial growth plate and ending 120 μm above the caudal growth plate. To assess cortical lesions, we determined the cortical bone volume (Ct.BV) and total volume (Ct.TV) of the ventral face of the vertebral body. Cortical void fraction (%) was calculated as 1−(Ct.BV/Ct.TV)*100 and represents the percent of the ventral face that was void of bone. Trabecular bone volume fraction (Tb.BV/Tb.TV, %) was measured in the region of interest. […]
Micro-computed topographic (μCT) imaging was performed on the L4-L6 vertebrae of the intact spine of a subset of mice using a high-resolution desktop imaging system ([…], Scanco Medical AG, Bruttisellen, Switzerland). […] Cortical and trabecular bone micro architecture was quantified in the 5th lumbar vertebral body in a region beginning 120 μm below the cranial growth plate and ending 120 μm above the caudal growth plate. […]

H929 cells = test: Dexamethasone sensitivity of H929 cells co-cultured with HS-5 BMSCs (CAM-DR); format: cell-based, human; details: H929 with HS-5 cells 48 h, 200 nM dexamethasone, control cel-miR-67
Text: Reasoning that CD44 is a downstream target of Wnt/β-catenin/BCL9 transcriptional complex, and that miR-30c downregulates expression of CD44 in MM cells (FIG. 3B), and that CD44 is a functional component of cell adhesion-mediated drug resistance (CAM-DR), we investigated the possible role of miR-30s in MM drug resistance in the context of a bone marrow (BM) microenvironment. After ectopic overexpression of miR-30c or miR-30a/b/c/d/e cocktail (miR-30mix) or a negative control (cel-miR-67) in H929 cells, we co-cultured these cells alone or in the presence of HS-5 cells for 48 h and treated them with 200 nM dexamethasone.

CD138+ primary cells = test: Proliferation of patient CD138+ primary MM cells, [3H] thymidine uptake; format: cell-based, human; details: 40 pmol
Experimental: Cell proliferation was assessed by [^3H] thymidine uptake as described (1). For apoptosis, cells were stained with Annexin-V-Fluos (Boehringer, Mannheim, Germany). Stained cells were analyzed by flow cytometry, and data were analyzed by use of CellQuest (Becton-Dickinson, Sunnyvale, Calif.). Cell invasion and migration assays were done as described (2).
as §1

For “miR-30c: microRNA, UGUAAACAUCCUACACUCUCAGC (SEQ ID NO: 3 / 29) (listed as RNA, chemistry not given here; listed as Homo sapiens)”, the “expression of BCL9, CD44 and Axin2” value (BCL9 [1]) was “downregulated”, the BCL9 protein expression (BCL9 [2]) was “downregulation” and the “expression of BCL9 mRNA” value (BCL9 [3]) was “significant reduction”. The “expression of Wnt pathway downstream targets CD44 and Axin2” value (BCL9 [3]) was “reduced expression”, the bone osteolytic lesions [4] was “No apparent development” and the “sensitivity to dexamethasone treatment” value (H929 cells) was “resensitize”. The MM cell proliferation (CD138+ primary cells) was “dramatically inhibited”.
